{"source": "patent US6780871B2", "about": "“Methods and compositions for treating addiction disorders” (Albany Medical College, priority 2001, dated 2004)", "format_in_all_cases": "in vivo, rat", "key": {"[1]": {"tested_on": "morphine self-administration", "test": "intravenous morphine self-administration", "settings": "18-methoxycoronaridine 1 mg/kg i.p., dextromethorphan 5 mg/kg s.c.", "experimental": "Dextromethorphan hydrobromide (5 mg/kg; Sigma/RBI, St. Louis, Mo.) was dissolved in saline and injected subcutaneously 20 minutes before testing. Mecamylamine hydrochloride (1 mg/kg; Sigma/RBI, St. Louis, Mo.) was dissolved in physiological saline and injected intraperitoneally 30 minutes before testing. All rats received two injections. For rats that received a single drug, half of them also received the appropriate saline/vehicle injection corresponding to each of the other two drugs.\nNaive female Long-Evans derived rats (250 g; Charles River, N.Y.) were maintained on a normal 12 h light cycle (lights on at 7:00 a.m., lights off at 7:00 p.m.). For all experiments the “Principles of Laboratory Animal Care” (NIH publication No. 85-23, revised 1985, which is hereby incorporated by reference) were followed.\nThe intravenous self-administration procedure described in Glick et al., “18-MC Reduces Methamphetamine and Nicotine Self-administration in Rats,” NeuroReport 11:2013-2015 (2000) (“Glick I”), which is hereby incorporated by reference, was employed. Briefly, responses on either of two levers (mounted 15 cm apart on the front wall of each operant test cage) were recorded on an IBM compatible computer with a Med Associates, Inc. interface. The intravenous self-administration system consisted of polyethylene-silicone cannulas constructed according to the design of Weeks, “Long-term Intravenous Infusion,” pp. 155-168 in Myers (ed.), Methods in Psychobiology, Vol. 2, New York: Academic Press (1972) (“Weeks”), which is hereby incorporated by reference; Instech harnesses and swivels; and Harvard Apparatus infusion pumps (#55-2222). Shaping of the bar-press response was initially accomplished by training rats to bar-press for water. Cannulas were then implanted in the external jugular vein according to procedures described in Weeks, which is hereby incorporated by reference. Self-administration testing began with a 16-h nocturnal session followed by daily 1-h sessions, 5 days (Monday-Friday) a week. A lever-press response produced a 10 μl infusion of drug solution (0.01 mg of morphine sulfate) in about 0.2 s or a 50 μl infusion of drug solution (0.025 mg of methamphetamine sulfate) in about 1 s. Since all rats generally weighed 250±20 g, each response delivered approximately 0.04 mg/kg of morphine or 0.1 mg/kg of methamphetamine. Experiments to assess the effects of experimental treatments were begun when baseline self-administration rates stabilized (≦10% variation from one day to the next across 5 days), usually after 2 weeks of testing.\nEach data point represents the mean (±S.E.M.) percent of baseline of 6-8 rats. Significant differences between baseline and treatment are indicated by an asterisk (paired t-test, P<0.01-0.001).\nEach data point represents the mean (±S.E.M.) percent of baseline of 5-8 rats. Significant differences between baseline and treatment are indicated by an asterisk (paired t-test), P<0.05-0.01)."}, "[2]": {"tested_on": "methamphetamine self-administration", "test": "intravenous methamphetamine self-administration"}, "responding for water": {"tested_on": "responding for water", "test": "bar-pressing (responding) for water", "settings": "dose of 3 mg/kg, alone, data not shown"}, "[3]": {"tested_on": "nicotine self-administration", "test": "nicotine self-administration", "settings": "Example 7, FIGS. 11-12: mecamylamine 0.1 mg/kg i.p., 18-methoxycoronaridine 0.5 mg/kg i.p., dextromethorphan 0.5 mg/kg s.c., bupropion 5 mg/kg i.p.; 5-8 rats"}}, "data": [{"molecule": "CNC1(C)C2CCC(C2)C1(C)C", "note": "(stereo not drawn) [mecamylamine]", "values": [{"measurement": "effect on morphine self-administration (percent of baseline)", "setting": "[1]; Example 5, FIG. 5: mecamylamine 1 mg/kg i.p., 6-8 rats", "value": "none of the drugs administered alone, significantly decreased"}, {"measurement": "effect on morphine self-administration (percent of baseline)", "setting": "[1]; Example 6, FIG. 8: mecamylamine 1 mg/kg i.p., bupropion 5 mg/kg i.p., 5-8 rats", "value": "none of the drugs administered alone, significantly decreased"}, {"measurement": "effect on methamphetamine self-administration (percent of baseline)", "setting": "[2]; Example 5, FIG. 6: mecamylamine 1 mg/kg i.p., 18-methoxycoronaridine 2 mg/kg i.p., dextromethorphan 5 mg/kg s.c., 6-7 rats", "value": "none of the drugs administered alone, significantly decreased"}, {"measurement": "effect on methamphetamine self-administration (percent of baseline)", "setting": "[2]; Example 6, FIG. 9: mecamylamine 1 mg/kg i.p., 18-methoxycoronaridine 5 mg/kg i.p., dextromethorphan 10 mg/kg s.c., bupropion 10 mg/kg i.p., 5-9 rats", "value": "none of the drugs administered alone, significantly decreased"}, {"measurement": "effect on responding for water", "setting": "responding for water", "value": "decreases responding for water"}, {"measurement": "effect on nicotine self-administration (percent of baseline)", "setting": "[3]", "value": "none of the drugs administered alone, significantly decreased"}]}]}
